Test results published in patent US11787865B2, “Bifunctional molecules for lysosomal targeting and related compositions and methods” (The Board of Trustees of the Leland Stanford Junior …, priority 2018, dated 2023).

Key:
[1] = system: mouse IgG (IgG-AF647); experiment: Cellular uptake of IgG-AF647 in HUH7 cells; type: cell-based; conditions: HUH7 cells incubated with inhibitor
Procedure: To assess whether a bifunctional molecule comprising ASGPR ligands could indeed shuttle cargo to lysosomes in hepatocytes, an assay schematically illustrated in FIG. 21 was employed. A bifunctional molecule comprising an anti-mouse IgG antibody conjugated to a poly(GalNAc-co-Ala) polymer was tested to determine whether the bifunctional molecule could shuttle extracellular fluorescent-labeled mouse IgG (IgG-AF647) into the intracellular compartment of hepatocytes. […] HEPG2 cells (hepatocellular carcinoma cell line) were incubated with 50 nM IgG-AF647 and 25 nM of anti-mouse conjugates for 1 hour. Cellular uptake was analyzed by flow cytometry. As shown by the bar graph, an approximately 8-fold increase in cell fluorescence was observed using the GalNAc-containing conjugate while the M6Pn-containing conjugate induced 2-fold increase over background.
Shown in FIG. 22 are results from the assay described for FIG. 21 but in HUH7 cells (another hepatocellular carcinoma cell line). […] In addition, controls were included in which the cells were incubated with M6PR or ASGPR inhibitors (monomeric M6P (mM6P) and monomeric GalNAc (mGalNAc), respectively).

[2] = cited from earlier work
[3] = molecular target: cation independent M6PR (CIM6PR) (Homo sapiens, UniProt P11717); conditions: relative to mannose-6-phosphate glycans; cited from earlier work
cation independent M6PR (CIM6PR), sequence (P11717 41-2491): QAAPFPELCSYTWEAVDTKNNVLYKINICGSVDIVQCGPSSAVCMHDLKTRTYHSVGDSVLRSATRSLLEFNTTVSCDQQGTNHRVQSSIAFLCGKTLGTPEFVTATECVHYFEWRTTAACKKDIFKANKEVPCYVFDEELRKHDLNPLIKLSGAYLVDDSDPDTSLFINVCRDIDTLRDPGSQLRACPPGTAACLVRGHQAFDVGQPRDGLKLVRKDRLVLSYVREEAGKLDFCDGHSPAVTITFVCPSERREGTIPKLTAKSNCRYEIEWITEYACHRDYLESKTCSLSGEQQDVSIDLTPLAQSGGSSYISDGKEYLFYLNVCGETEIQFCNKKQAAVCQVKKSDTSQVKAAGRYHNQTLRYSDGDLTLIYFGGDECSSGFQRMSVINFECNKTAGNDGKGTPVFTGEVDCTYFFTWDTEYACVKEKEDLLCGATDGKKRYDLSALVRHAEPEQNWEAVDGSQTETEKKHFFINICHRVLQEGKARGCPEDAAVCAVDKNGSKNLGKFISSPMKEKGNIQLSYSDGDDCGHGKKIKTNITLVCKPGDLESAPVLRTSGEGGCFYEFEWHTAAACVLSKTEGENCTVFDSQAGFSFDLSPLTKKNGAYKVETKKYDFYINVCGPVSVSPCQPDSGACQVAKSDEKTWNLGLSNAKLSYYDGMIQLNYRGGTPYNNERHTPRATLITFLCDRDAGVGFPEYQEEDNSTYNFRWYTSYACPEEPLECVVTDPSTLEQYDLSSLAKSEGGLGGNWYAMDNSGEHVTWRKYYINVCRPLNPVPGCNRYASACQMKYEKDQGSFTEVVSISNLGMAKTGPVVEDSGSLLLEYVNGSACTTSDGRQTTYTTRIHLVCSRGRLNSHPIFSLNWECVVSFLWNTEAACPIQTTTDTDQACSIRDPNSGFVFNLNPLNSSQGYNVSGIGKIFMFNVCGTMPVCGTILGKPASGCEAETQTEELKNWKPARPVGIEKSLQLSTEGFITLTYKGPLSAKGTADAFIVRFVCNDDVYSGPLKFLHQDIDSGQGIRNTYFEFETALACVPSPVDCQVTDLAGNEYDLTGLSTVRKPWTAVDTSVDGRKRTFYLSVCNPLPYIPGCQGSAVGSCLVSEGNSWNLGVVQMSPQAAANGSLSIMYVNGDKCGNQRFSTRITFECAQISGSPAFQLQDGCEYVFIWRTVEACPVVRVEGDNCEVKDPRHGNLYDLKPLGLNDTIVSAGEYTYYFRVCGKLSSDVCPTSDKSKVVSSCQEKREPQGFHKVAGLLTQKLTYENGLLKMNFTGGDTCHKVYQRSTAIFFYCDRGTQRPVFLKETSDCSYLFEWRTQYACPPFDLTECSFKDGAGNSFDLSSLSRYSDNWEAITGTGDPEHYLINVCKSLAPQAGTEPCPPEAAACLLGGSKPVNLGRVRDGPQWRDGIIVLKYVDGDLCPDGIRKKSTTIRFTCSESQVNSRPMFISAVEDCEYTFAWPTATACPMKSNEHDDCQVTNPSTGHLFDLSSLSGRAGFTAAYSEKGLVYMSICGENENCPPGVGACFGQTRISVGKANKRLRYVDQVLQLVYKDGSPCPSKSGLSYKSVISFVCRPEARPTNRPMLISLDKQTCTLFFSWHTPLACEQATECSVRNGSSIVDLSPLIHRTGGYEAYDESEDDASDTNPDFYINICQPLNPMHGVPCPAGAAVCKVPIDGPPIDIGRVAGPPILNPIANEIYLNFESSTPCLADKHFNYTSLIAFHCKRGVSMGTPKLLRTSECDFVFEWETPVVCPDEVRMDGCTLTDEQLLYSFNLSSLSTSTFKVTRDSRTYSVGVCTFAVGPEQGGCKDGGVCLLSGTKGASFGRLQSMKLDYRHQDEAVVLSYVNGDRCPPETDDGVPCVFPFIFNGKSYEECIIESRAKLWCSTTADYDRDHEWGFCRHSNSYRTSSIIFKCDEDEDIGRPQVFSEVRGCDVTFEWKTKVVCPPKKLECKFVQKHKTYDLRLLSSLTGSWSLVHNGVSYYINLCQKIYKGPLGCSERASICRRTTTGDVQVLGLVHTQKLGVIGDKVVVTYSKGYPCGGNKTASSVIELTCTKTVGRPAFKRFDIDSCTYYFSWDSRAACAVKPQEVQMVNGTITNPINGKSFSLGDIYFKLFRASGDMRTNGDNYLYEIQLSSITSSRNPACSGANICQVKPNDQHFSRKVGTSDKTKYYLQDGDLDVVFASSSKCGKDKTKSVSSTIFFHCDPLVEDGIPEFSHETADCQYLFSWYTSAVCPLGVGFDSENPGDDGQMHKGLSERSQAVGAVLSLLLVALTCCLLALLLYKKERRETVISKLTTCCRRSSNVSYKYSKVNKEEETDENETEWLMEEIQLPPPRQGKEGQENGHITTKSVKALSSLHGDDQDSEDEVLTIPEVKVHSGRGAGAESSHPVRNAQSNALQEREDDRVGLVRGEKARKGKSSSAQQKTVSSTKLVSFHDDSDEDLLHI

CC(=O)N[C@H]1C(O)O[C@H](CO)[C@H](O)[C@@H]1O (mixture of isomers) [mGalNAc, monomeric GalNAc]
uptake of IgG-AF647 with conjugates in presence of M6PR or ASGPR inhibitor [1]: Uptake was reduced

C=CC(=O)OC[C@@H](O)[C@@H](O)[C@H](O)[C@H](O)C=O [Mannose-6-acrylate glycans, Mannose-6-acrylate]
serum stability compared to mannose-6-phosphate glycans [2]: better serum stability
relative binding affinity for the CIM6PR, compared to mannose-6-phosphate glycans [3]: 0.7

O=P(O)(O)OC[C@H]1OC(O)[C@@H](O)[C@@H](O)[C@@H]1O (some centres unmarked) [mM6P, monomeric M6P]
uptake of IgG-AF647 with conjugates in presence of M6PR or ASGPR inhibitor [1]: Uptake was reduced

Mannose-6-carboxylate [Mannose-6-carboxylate glycans]
relative binding affinity for the CIM6PR, compared to mannose-6-phosphate glycans [3]: 0.3
